Molecular target: GLYAT variant SEQ ID NO:10 (derived from SEQ ID NO:1 and 2) (Bacillus licheniformis, UniProt Q65LG7, A28V/D131E/E14D/E65Q/E67K/E68K/G37R/G38S/H61R/I132T/I135A/I15L/I19V/I53V/I91V/K101R/K144R/K58Q/L105M/L106I/L26I/L97I/M75V/R47G/R92K/T89S/V114A/Y130F/Y45F)
Assay: Substrate saturation kinetic analysis of purified GLYAT
Conditions: pH 7.0
Experimental: Cells were lysed with BPER (Pierce) containing 1 mM dithiothreitol, 0.2 mg/ml lysozyme, 2 mg/ml protease inhibitor cocktail (Sigma bacterial cell cocktail, P8465) and endonuclease. Lysate supernatants were passed through a column of NHS-activated Agarose (Thermo, #26197) derivatized with coenzyme A. Columns were washed with 25 mM Hepes, pH 7, containing progressively higher concentrations of KCl, then eluted with 25 mM Hepes, 100 mM KCl, 10% ethylene glycol and 1 mM acetyl CoA. Purity as evaluated by polyacrylamide gel electrophoresis was deemed consistently high enough to be assumed to be 100%. Protein concentration was determined with the Bradford assay using a large-scale lot of produced GLYAT protein as standard.
Kinetic parameters for various substrates were obtained using a range of seven substrate concentrations plus a blank containing none of the varied substrate. The non-varied substrate was present at a saturating concentration. Six-microliter aliquots of 50-fold concentrated stock solutions of the varied substrate were placed in a 96-well assay plate (Greiner BioOne UV-Star). Reactions were started with the addition of 294 ul of 25 mM Hepes, pH 7.0, 100 mM KCL, 10% ethylene glycol, the non-varied substrate and 10 to 200 nM enzyme. Absorbance was monitored for one minute with a Spectramax 384 Plus plate reader (Molecular Devices). If the amino acid present at position 30 (29 if alanine is absent at position 2) was cysteine, absorbance was monitored at 235 nm, which directly detects cleavage of the sulfoester bond of acetyl CoA. If the amino acid present at position 30 (29 if alanine is absent at position 2) was isoleucine, 0.5 mM 5,5′-dithiobis-(2-nitrobenzoic acid), which reacts with the coenzyme A thiol generated in the enzyme catalyzed reaction, was included in the reaction mix and absorbance was monitored at 412 nm. Initial rates were processed by the Softmax software to obtain kinetic parameters, using the double-reciprocal transformation.

## N[C@@H](CC(=O)O)C(=O)O [aspartate]
  Asp as % of glyph (kcat/KM asp / kcat/KM glyph): 0.091%

From patent US11236354B2, “Glyphosate-n-acetyltransferase (GLYAT) sequences and methods of use” (PIONEER HI-BRED INTERNATIONAL, INC., priority 2013, dated 2022)
